Test results reported in article PMC5107130 (Pharmacological Research, 2016).
Like-named read-outs stand apart in the source and are kept apart here.

How the values were obtained:
[1] = biological target: T1, Recombinant full length human CBS (Homo sapiens, UniProt P35520); experiment: AzMC fluorescence assay of CBS-derived H2S production; assay type: biochemical; details: for Confirmation (% inhibition of CBS-induced AzMC fluorescence) / % inhibition of CBS-induced AzMC fluorescence: mean ± SEM, n = 3; for IC50: read-out: IC50, inhibition of recombinant CBS (CBS-induced AzMC fluorescence), cell-free, 2 mM L-cysteine and homocysteine; for % inhibition of CBS-induced AzMC fluorescence: copper compounds
T1 sequence (P35520 1-551): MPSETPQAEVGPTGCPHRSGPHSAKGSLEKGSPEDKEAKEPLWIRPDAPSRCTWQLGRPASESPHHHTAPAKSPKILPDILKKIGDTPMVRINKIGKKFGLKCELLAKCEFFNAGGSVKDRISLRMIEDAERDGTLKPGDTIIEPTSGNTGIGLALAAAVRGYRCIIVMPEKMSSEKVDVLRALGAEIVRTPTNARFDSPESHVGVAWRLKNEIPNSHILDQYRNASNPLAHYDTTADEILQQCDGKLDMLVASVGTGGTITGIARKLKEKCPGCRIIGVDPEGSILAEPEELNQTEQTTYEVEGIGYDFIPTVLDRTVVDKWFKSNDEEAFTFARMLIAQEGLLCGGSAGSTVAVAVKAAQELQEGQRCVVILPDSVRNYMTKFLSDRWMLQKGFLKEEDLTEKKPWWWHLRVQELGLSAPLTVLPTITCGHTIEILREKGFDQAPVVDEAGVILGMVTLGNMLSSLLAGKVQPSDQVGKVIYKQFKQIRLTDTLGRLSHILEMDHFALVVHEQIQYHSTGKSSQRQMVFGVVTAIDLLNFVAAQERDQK

[2] = Counterscreen: AzMC fluorescence signal generated by the H2S donor GYY4137; details: mean ± SEM, n = 3; for % inhibition of GYY4137-induced AzMC fluorescence: copper compounds
[3] = read-out: Confirmation (% inhibition of CBS-induced AzMC fluorescence), 30 μM, mean ± SEM, n = 3
[4] = read-out: Initial screen (% inhibition of CBS-induced AzMC fluorescence), 30 μM
[5] = read-out: Confirmation (% inhibition of CBS-induced AzMC fluorescence)
[6] = read-out: Initial screen (% inhibition of CBS-induced AzMC fluorescence)
[7] = read-out: % inhibition of recombinant CBS activity

SMILES	inhibition at 30 µM [1, 3]	inhibition at 30 µM [1, 4]	Confirmation (% inhibition of GYY4137-induced AzMC fluorescence) ([2]; 30 μM)	other results
C[C@@](Cc1ccc(O)c(O)c1)(NN)C(=O)O [Carbidopa]				inhibition at 100 µM ([1]; read-out: % inhibition of recombinant CBS activity, 100 μM, standard assay conditions, freshly dissolved): 6%
CC(C)/N=c1\cc2n(-c3ccc(Cl)cc3)c3ccccc3nc-2cc1Nc1ccc(Cl)cc1 [Clofazimine]	30 ± 7%	47%	28 ± 5%	
COC1=C(OC)C(=O)c2ccccc2C1=O [2,3-Dimethoxy-1,4-naphthoquinone]	53 ± 1%	49%	51 ± 4%	
O=S(=O)([O-])c1cc(N=C=S)ccc1C=Cc1ccc(N=C=S)cc1S(=O)(=O)[O-].[Na+].[Na+] [DIDS, 4,4′-diisothiocyanostilbene-2,2′-sufonic acid sodium salt]			56 ± 5%	Initial screen (% inhibition of CBS-induced AzMC fluorescence) ([1]; 30 μM): 69%; Confirmation (% inhibition of CBS-induced AzMC fluorescence) ([1]; 30 μM): 58 ± 4%
N.N.N.N.N.N.N.N.N.N.N.N.N.N.[Cl-].[Cl-].[Cl-].[Cl-].[Cl-].[Cl-].[O-2].[O-2].[Ru+3].[Ru+3].[Ru+4] [Ruthenium red]			72 ± 3%	Initial screen (% inhibition of CBS-induced AzMC fluorescence) ([1]; 30 μM): 72%; Confirmation (% inhibition of CBS-induced AzMC fluorescence) ([1]; 30 μM): 72 ± 6%
O=[N+]([O-])[O-].O=[N+]([O-])[O-].[Cu+2] [Cu(NO2)2, copper(II) nitrate]				IC50 [1]: ~200 nM
Cc1cc(/C=C/c2ccc3cc(N(C)C)ccc3[n+]2C)c(C)n1-c1ccccc1 [Pyrvinium pamoate]		49%	36 ± 3%	
CC(=O)[O-].CC(=O)[O-].[Cu+2] [CuAc, copper(II) acetate]				% inhibition of CBS-induced AzMC fluorescence ([1]; 0.1 μM): 39 ± 1%; % inhibition of CBS-induced AzMC fluorescence ([1]; 0.3 μM): 66 ± 1%; % inhibition of CBS-induced AzMC fluorescence ([1]; 1 μM): 92 ± 1%; IC50 [1]: ~200 nM; % inhibition of GYY4137-induced AzMC fluorescence ([2]; 0.1 μM): 2 ± 2%; % inhibition of GYY4137-induced AzMC fluorescence ([2]; 0.3 μM): 12 ± 1%; % inhibition of GYY4137-induced AzMC fluorescence ([2]; 1 μM): 17 ± 1%
O=C1C=CC(=O)c2c(O)cccc21 [Juglone]			61 ± 3%	
CC1=C(C2=C(C)C(=O)c3c(c(C=O)c(O)c(O)c3C(C)C)C2=O)C(=O)c2c(C=O)c(O)c(O)c(C(C)C)c2C1=O [Gossypolone]				inhibition at 12 µM [1, 5]: 30 ± 5%; inhibition at 12 µM [1, 6]: 57%; Confirmation (% inhibition of GYY4137-induced AzMC fluorescence) ([2]; 12 μM): 25 ± 4 (12 μM) %
Cc1cc(C(C#N)c2ccc(Cl)cc2)c(Cl)cc1NC(=O)c1cc(I)cc(I)c1O (stereo not drawn) [Closantel]			31 ± 2%	inhibition at 30 µM [1, 5]: 25 ± 5%; inhibition at 30 µM [1, 6]: 43%
COc1cc2cc3c4c(cc(OC)c(OC)c4c2cc1OC)CCN3C [Dehydroglaucine]				Initial screen (% inhibition of CBS-induced AzMC fluorescence) ([1]; 17 μM): 62% (17 μM); Confirmation (% inhibition of CBS-induced AzMC fluorescence) ([1]; 17 μM): 82 ± 4 (17 μM) %; Confirmation (% inhibition of GYY4137-induced AzMC fluorescence) ([2]; 17 μM): 57 ± 8 (17 μM) %
NNCc1cccc(O)c1 [3-hydroxybenzylhydrazine]				inhibition at 10 µM [1, 7]: 24%; inhibition at 30 µM [1, 7]: 37%; inhibition at 100 µM [1, 7]: 68%

The next lines start with results.

inhibition at 30 µM [1, 3]	inhibition at 30 µM [1, 4]	SMILES	Confirmation (% inhibition of GYY4137-induced AzMC fluorescence) ([2]; 30 μM)	other results
75 ± 3%	68%	CC(=O)[C@H]1CC[C@H]2[C@@H]3CCC4=CC(=O)CC[C@]4(C)[C@H]3CC[C@]12C [Progesterone]	64 ± 1%	
54 ± 2%	52%	NC(=O)N/N=C/c1ccc([N+](=O)[O-])o1 [Nitrofurazone]	48 ± 5%	
55 ± 4%	48%	O=C(N/N=C/c1ccc([N+](=O)[O-])o1)c1ccc(O)cc1 [Nifuroxazide]	50 ± 2%	
59 ± 3%	55%	Cc1cc2nc3c(=O)[nH]c(=O)nc-3n(C)c2cc1C=O [Ro-08-2750, 2,3,4,10-Tetrahydro-7,10-dimethyl-2,4-dioxobenzo[g]pteridine-8-carboxaldehyde]	69 ± 8%	
